system: GST-Bcl-2; test: TR-FRET binding assay, Bcl-2; settings: TR-FRET Ki values
Description: Tb-anti-GST antibody was purchased from Invitrogen (Catalog No. PV4216).
Representative compounds were serially diluted in dimethyl sulfoxide (DMSO) starting at 50 μM (2× starting concentration; 10% DMSO) and 10 μL were transferred into a 384-well plate.
The samples were then mixed on a shaker for 1 minute and incubated for an additional 3 hours at room temperature. For each assay, the probe/antibody and protein/probe/antibody were included on each assay plate as negative and positive controls, respectively. Fluorescence was measured on the Envision (Perkin Elmer) using a 340/35 nm excitation filter and 520/525 (F-Bak peptide) and 495/510 nm (Tb-labeled anti-Histidine antibody) emission filters.
The inhibition constant (Ki) is the dissociation constant of an enzyme-inhibitor complex or a protein/small molecule complex, wherein the small molecule is inhibiting binding of one protein to another protein or peptide. […] Inhibition constants were determined using Wang's equation (Wang Z-X., An Exact Mathematical Expression For Describing Competitive Binding Of Two Different Ligands To A Protein Molecule. FEBS Lett. 1995, 360:111-4).

**Q.** How did the “Binding selectivity ratio (Bcl-XL Ki/Bcl-2 Ki)” value (shortened to “Binding selectivity ratio”) turn out when `C[C@H](Nc1ccc(S(=O)(=O)NC(=O)c2ccc(N3CCN(CC4=C(c5ccc(Cl)cc5)CC(C)(C)CC4)CC3)cc2Oc2ccc3[nH]ccc3c2)cc1[N+](=O)[O-])c1ccccc1` [EXAMPLE 378, 4-(4-{[2-(4-chlorophenyl)-4,4-dimethylcyclohex-1-en-1-yl]methyl}piperazin-1-yl)-2-(1H-indol-5-yloxy)-N-[(3-nitro-4-{[(1S)-1-phenylethyl]amino}phenyl)sulfonyl]benzamide] was run?
**A.** >10.5

**Q.** With `CC1(C)CCC(CN2CCN(c3ccc(C(=O)NS(=O)(=O)c4ccc(NCC5(F)CCOCC5)c([N+](=O)[O-])c4)c(Oc4cccc5[nH]cnc45)c3)CC2)=C(c2ccc(Cl)cc2)C1` [EXAMPLE 441, 2-(1H-benzimidazol-4-yloxy)-4-(4-{[2-(4-chlorophenyl)-4,4-dimethylcyclohex-1-en-1-yl]methyl}piperazin-1-yl)-N-[(4-{[(4-fluorotetrahydro-2H-pyran-4-yl)methyl]amino}-3-nitrophenyl)sulfonyl]benzamide] as the molecule, how does the “Binding selectivity ratio” value read?
**A.** 2421.9

**Q.** With `CC1(C)CCC(CN2CCN(c3ccc(C(=O)NS(=O)(=O)c4cnc(OCCC5CCCO5)c(Cl)c4)c(Oc4cccc5[nH]ncc45)c3)CC2)=C(c2ccc(Cl)cc2)C1` (stereo not drawn) [EXAMPLE 461, 4-(4-{[2-(4-chlorophenyl)-4,4-dimethylcyclohex-1-en-1-yl]methyl}piperazin-1-yl)-N-{[5-chloro-6-(2-tetrahydrofuran-2-ylethoxy)pyridin-3-yl]sulfonyl}-2-(1H-indazol-4-yloxy)benzamide] as the molecule, how does the “Binding selectivity ratio” value read?
**A.** 39.44

**Q.** With `CC1(C)CCC(CN2CCN(c3ccc(C(=O)NS(=O)(=O)c4ccc(OC[C@@H]5COCCO5)c([N+](=O)[O-])c4)c(Oc4ccc5[nH]ccc5c4)c3)CC2)=C(c2ccc(Cl)cc2)C1` [EXAMPLE 347, 4-(4-{[2-(4-chlorophenyl)-4,4-dimethylcyclohex-1-en-1-yl]methyl}piperazin-1-yl)-N-({4-[(2S)-1,4-dioxan-2-ylmethoxy]-3-nitrophenyl}sulfonyl)-2-(1H-indol-5-yloxy)benzamide] as the molecule, how does the “Binding selectivity ratio” value read?
**A.** 1256.7

**Q.** Which “Binding selectivity ratio” value does the source give for `CC1(C)CCC(CN2CCN(c3ccc(C(=O)NS(=O)(=O)c4cnc(OCC5CCOCC5)c(Cl)c4)c(Oc4cccc5[nH]ncc45)c3)CC2)=C(c2ccc(Cl)cc2)C1` [EXAMPLE 427, 4-(4-{[2-(4-chlorophenyl)-4,4-dimethylcyclohex-1-en-1-yl]methyl}piperazin-1-yl)-N-{[5-chloro-6-(tetrahydro-2H-pyran-4-ylmethoxy)pyridin-3-yl]sulfonyl}-2-(1H-indazol-4-yloxy)benzamide] here?
**A.** 34408.55031

**Q.** For `CC(C)[C@H](CO)Nc1ccc(S(=O)(=O)NC(=O)c2ccc(N3CCN(CC4=C(c5ccc(Cl)cc5)CC(C)(C)CC4)CC3)cc2Oc2ccc3[nH]ccc3c2)cc1[N+](=O)[O-]` [EXAMPLE 371, 4-(4-{[2-(4-chlorophenyl)-4,4-dimethylcyclohex-1-en-1-yl]methyl}piperazin-1-yl)-N-[(4-{[(1R)-1-(hydroxymethyl)-2-methylpropyl]amino}-3-nitrophenyl)sulfonyl]-2-(1H-indol-5-yloxy)benzamide], which “Binding selectivity ratio” value is on record?
**A.** >78.8

**Q.** For `CC1(C)CC(c2ccc(Cl)cc2)=C(CN2CCN(c3ccc(C(=O)NS(=O)(=O)c4cnc(OCC5(F)CCOCC5)c(Cl)c4)c(Oc4cccc5[nH]ncc45)c3)CC2)CO1` [EXAMPLE 465, N-({5-chloro-6-[(4-fluorotetrahydro-2H-pyran-4-yl)methoxy]pyridin-3-yl}sulfonyl)-4-(4-{[4-(4-chlorophenyl)-6,6-dimethyl-5,6-dihydro-2H-pyran-3-yl]methyl}piperazin-1-yl)-2-(1H-indazol-4-yloxy)benzamide], which “Binding selectivity ratio” value is on record?
**A.** 1472

**Q.** For `CC1(C)CCC(CN2CCN(c3ccc(C(=O)NS(=O)(=O)c4ccc(NCC5(F)CCOCC5)c([N+](=O)[O-])c4)c(Oc4cccc5[nH]ncc45)c3)CC2)=C(c2ccc(Cl)cc2)C1` [EXAMPLE 409, 4-(4-{[2-(4-chlorophenyl)-4,4-dimethylcyclohex-1-en-1-yl]methyl}piperazin-1-yl)-N-[(4-{[(4-fluorotetrahydro-2H-pyran-4-yl)methyl]amino}-3-nitrophenyl)sulfonyl]-2-(1H-indazol-4-yloxy)benzamide], which “Binding selectivity ratio” value is on record?
**A.** 1748.5

**Q.** `CN(C)CC(=O)N1CCO[C@H](COc2ncc(S(=O)(=O)NC(=O)c3ccc(N4CCN(CC5=C(c6ccc(Cl)cc6)CC(C)(C)CC5)CC4)cc3Oc3cccc4[nH]ncc34)cc2Cl)C1` [EXAMPLE 425, N-[(5-chloro-6-{[(2S)-4-(N,N-dimethylglycyl)morpholin-2-yl]methoxy}pyridin-3-yl)sulfonyl]-4-(4-{[2-(4-chlorophenyl)-4,4-dimethylcyclohex-1-en-1-yl]methyl}piperazin-1-yl)-2-(1H-indazol-4-yloxy)benzamide] was tested. Which “Binding selectivity ratio” value did it give?
**A.** 1282

**Q.** `Cn1cncc1CNc1ccc(S(=O)(=O)NC(=O)c2ccc(N3CCN(CC4=C(c5ccc(Cl)cc5)CC(C)(C)CC4)CC3)cc2Oc2ccc3[nH]ccc3c2)cc1[N+](=O)[O-]` [EXAMPLE 360, 4-(4-{[2-(4-chlorophenyl)-4,4-dimethylcyclohex-1-en-1-yl]methyl}piperazin-1-yl)-2-(1H-indol-5-yloxy)-N-[(4-{[(1-methyl-1H-imidazol-5-yl)methyl]amino}-3-nitrophenyl)sulfonyl]benzamide] was tested. Which “Binding selectivity ratio” value did it give?
**A.** 633.9

**Q.** With `CN1CCC(O)(CCNc2ccc(S(=O)(=O)NC(=O)c3ccc(N4CCN(CC5=C(c6ccc(Cl)cc6)CC(C)(C)CC5)CC4)cc3Oc3ccc4[nH]ccc4c3)cc2[N+](=O)[O-])CC1` [EXAMPLE 211, 4-(4-{[2-(4-chlorophenyl)-4,4-dimethylcyclohex-1-en-1-yl]methyl}piperazin-1-yl)-N-[(4-{[2-(4-hydroxy-1-methylpiperidin-4-yl)ethyl]amino}-3-nitrophenyl)sulfonyl]-2-(1H-indol-5-yloxy)benzamide] as the molecule, how does the “Binding selectivity ratio” value read?
**A.** 651.1

**Q.** How did the “Binding selectivity ratio” value turn out when `CC1(C)CCC(CN2CCN(c3ccc(C(=O)NS(=O)(=O)c4ccc(C(=O)NCC5CCOCC5)cc4)c(Oc4ccc5[nH]ccc5c4)c3)CC2)=C(c2ccc(Cl)cc2)C1` [EXAMPLE 308, 4-(4-{[2-(4-chlorophenyl)-4,4-dimethylcyclohex-1-en-1-yl]methyl}piperazin-1-yl)-2-(1H-indol-5-yloxy)-N-[(4-{[(tetrahydro-2H-pyran-4-ylmethyl)amino]carbonyl}phenyl)sulfonyl]benzamide] was run?
**A.** >11.5

**Q.** Which “Binding selectivity ratio” value does the source give for `COCCOCCN1CC[C@@H](Nc2ccc(S(=O)(=O)NC(=O)c3ccc(N4CCN(CC5=C(c6ccc(Cl)cc6)CC(C)(C)CC5)CC4)cc3Oc3cccc4[nH]cnc34)cc2[N+](=O)[O-])C1` [EXAMPLE 429, 2-(1H-benzimidazol-4-yloxy)-4-(4-{[2-(4-chlorophenyl)-4,4-dimethylcyclohex-1-en-1-yl]methyl}piperazin-1-yl)-N-{[4-({(3R)-1-[2-(2-methoxyethoxy)ethyl]pyrrolidin-3-yl}amino)-3-nitrophenyl]sulfonyl}benzamide] here?
**A.** 140.65

**Q.** With `O=C(NS(=O)(=O)c1ccc(NCc2cccs2)c([N+](=O)[O-])c1)c1ccc(N2CCN(Cc3ccccc3-c3ccc(Cl)cc3)CC2)cc1Oc1ccccc1` [Example 162, 4-{4-[(4′-chloro-1,1′-biphenyl-2-yl)methyl]piperazin-1-yl}-N-({3-nitro-4-[(thien-2-ylmethyl)amino]phenyl}sulfonyl)-2-phenoxybenzamide] as the molecule, how does the “Binding selectivity ratio” value read?
**A.** 123.8

**Q.** Which “Binding selectivity ratio” value does the source give for `CC1(C)CCC(CN2CCN(c3ccc(C(=O)NS(=O)(=O)c4ccc(NC5CCN(CCn6cccn6)CC5)c([N+](=O)[O-])c4)c(Oc4ccc5[nH]ccc5c4)c3)CC2)=C(c2ccc(Cl)cc2)C1` [EXAMPLE 243, 4-(4-{[2-(4-chlorophenyl)-4,4-dimethylcyclohex-1-en-1-yl]methyl}piperazin-1-yl)-2-(1H-indol-5-yloxy)-N-{[3-nitro-4-({1-[2-(1H-pyrazol-1-yl)ethyl]piperidin-4-yl}amino)phenyl]sulfonyl}benzamide] here?
**A.** >2357.6

**Q.** With `COCCN1CCC(Nc2ccc(S(=O)(=O)NC(=O)c3ccc(N4CCN(CC5=C(c6ccc(Cl)cc6)CC(C)(C)CC5)CC4)cc3Oc3ccc4[nH]ccc4c3)cc2[N+](=O)[O-])CC1` [EXAMPLE 189, 4-(4-{[2-(4-chlorophenyl)-4,4-dimethylcyclohex-1-en-1-yl]methyl}piperazin-1-yl)-2-(1H-indol-5-yloxy)-N-[(4-{[1-(2-methoxyethyl)piperidin-4-yl]amino}-3-nitrophenyl)sulfonyl]benzamide] as the molecule, how does the “Binding selectivity ratio” value read?
**A.** 358.6

**Q.** Which “Binding selectivity ratio” value does the source give for `CN1CCC(Nc2ccc(S(=O)(=O)NC(=O)c3ccc(N4CCN(CC5=C(c6ccc(Cl)cc6)CC(C)(C)CC5)CC4)cc3Oc3cccc4[nH]cnc34)cc2[N+](=O)[O-])CC1` [EXAMPLE 418, 2-(1H-benzimidazol-4-yloxy)-4-(4-{[2-(4-chlorophenyl)-4,4-dimethylcyclohex-1-en-1-yl]methyl}piperazin-1-yl)-N-({4-[(1-methylpiperidin-4-yl)amino]-3-nitrophenyl}sulfonyl)benzamide] here?
**A.** 404.7

**Q.** With `COCCCNc1ccc(S(=O)(=O)NC(=O)c2ccc(N3CCN(CC4=C(c5ccc(Cl)cc5)CC(C)(C)CC4)CC3)cc2Oc2cccc3[nH]ccc23)cc1[N+](=O)[O-]` [EXAMPLE 318, 4-(4-{[2-(4-chlorophenyl)-4,4-dimethylcyclohex-1-en-1-yl]methyl}piperazin-1-yl)-2-(1H-indol-4-yloxy)-N-({4-[(3-methoxypropyl)amino]-3-nitrophenyl}sulfonyl)benzamide] as the molecule, how does the “Binding selectivity ratio” value read?
**A.** 102.6
